From EP4629837B1, “ANIMAL FEED COMPOSITION HAVING A COMBINATION OF FENUGREEK AND NEOHESPERIDIN DIHYDROCHALCONE (NHDC) TO IMPROVE PERFORMANCE OF ANIMALS OR STIMULATE THEIR SWEET TASTE RECEPTORS” (ADM International Sàrl, priority 2022, dated 2024)
Where a SMILES comes first, the peptide text is derived from it.

What was measured:
[1] = molecular target: T1, pig sweet taste receptors (Sus scrofa, UniProt I1ZBR6+Q0EF93); assay: Activation of heterologously expressed pig sweet taste receptors in HEK293T-PEAK rapid Gα15 cells (Fluo-4 AM Ca2+ fluorescence, dose-response); format: cell-based; details: single compounds and 1:4 combination, heterologous system of Example 1
T1 sequence (I1ZBR6 entry or part of it): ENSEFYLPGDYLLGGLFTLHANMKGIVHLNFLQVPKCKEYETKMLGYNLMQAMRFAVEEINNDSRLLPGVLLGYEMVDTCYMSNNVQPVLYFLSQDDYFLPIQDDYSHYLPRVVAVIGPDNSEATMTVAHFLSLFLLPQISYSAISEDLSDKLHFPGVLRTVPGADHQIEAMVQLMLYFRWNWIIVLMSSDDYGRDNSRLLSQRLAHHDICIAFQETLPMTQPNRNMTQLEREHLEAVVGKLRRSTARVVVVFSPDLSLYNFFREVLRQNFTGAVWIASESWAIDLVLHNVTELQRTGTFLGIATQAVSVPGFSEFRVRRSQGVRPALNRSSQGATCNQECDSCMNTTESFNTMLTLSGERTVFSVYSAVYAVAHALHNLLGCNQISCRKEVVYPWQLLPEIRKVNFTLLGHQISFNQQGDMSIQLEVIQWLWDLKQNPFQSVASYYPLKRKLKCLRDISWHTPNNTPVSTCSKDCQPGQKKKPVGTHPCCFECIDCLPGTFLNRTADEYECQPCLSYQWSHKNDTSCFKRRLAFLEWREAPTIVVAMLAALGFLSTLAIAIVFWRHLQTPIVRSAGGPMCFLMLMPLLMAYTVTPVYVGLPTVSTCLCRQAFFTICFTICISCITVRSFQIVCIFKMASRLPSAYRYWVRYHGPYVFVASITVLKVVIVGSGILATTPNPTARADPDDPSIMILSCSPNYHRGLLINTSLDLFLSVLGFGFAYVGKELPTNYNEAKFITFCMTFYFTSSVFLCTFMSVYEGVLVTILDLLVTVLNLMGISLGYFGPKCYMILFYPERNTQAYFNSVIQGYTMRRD
T1 sequence (Q0EF93 entry or part of it): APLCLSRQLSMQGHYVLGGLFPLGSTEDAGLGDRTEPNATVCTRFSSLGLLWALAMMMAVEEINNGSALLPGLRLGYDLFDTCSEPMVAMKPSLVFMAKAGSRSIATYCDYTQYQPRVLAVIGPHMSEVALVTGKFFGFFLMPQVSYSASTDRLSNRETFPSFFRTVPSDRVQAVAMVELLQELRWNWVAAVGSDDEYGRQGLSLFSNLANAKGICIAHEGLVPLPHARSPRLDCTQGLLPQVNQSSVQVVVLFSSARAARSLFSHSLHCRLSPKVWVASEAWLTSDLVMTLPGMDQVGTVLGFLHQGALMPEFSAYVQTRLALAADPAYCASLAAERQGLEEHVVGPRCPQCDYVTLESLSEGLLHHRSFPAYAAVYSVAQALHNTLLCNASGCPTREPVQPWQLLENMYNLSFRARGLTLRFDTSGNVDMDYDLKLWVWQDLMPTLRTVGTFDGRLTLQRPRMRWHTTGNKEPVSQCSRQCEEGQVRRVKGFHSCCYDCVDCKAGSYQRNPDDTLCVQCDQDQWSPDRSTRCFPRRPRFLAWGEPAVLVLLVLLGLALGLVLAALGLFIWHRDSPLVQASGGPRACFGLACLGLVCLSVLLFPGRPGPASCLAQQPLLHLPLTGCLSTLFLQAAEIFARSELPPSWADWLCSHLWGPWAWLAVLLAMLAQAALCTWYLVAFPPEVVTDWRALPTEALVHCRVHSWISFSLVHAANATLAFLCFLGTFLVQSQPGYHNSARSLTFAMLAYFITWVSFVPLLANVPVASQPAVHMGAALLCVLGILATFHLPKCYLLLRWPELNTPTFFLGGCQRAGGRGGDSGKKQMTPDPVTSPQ
Description: For the production of pig sweet taste receptor constructs, full length coding sequences of pig taste receptors T1R2 and T1R3 of pigs were synthesized and ligated into modified expression vectors pcDNA3/TO and pcDNA5/FRT/PM for evaluation. Amino-terminal sst-tags were added to facilitate cell membrane targeting, cytomegalovirus (CMV) promoters were added to control gene expression, and carboxylterminal FLAG or HSV tags were added to enable immunological detection of receptor subunits 1,2. […]
Functional expression of sweet taste receptors. The pig sweet taste receptor function was analyzed by transfecting the HEK293T-PEAK rapid Gα15 cells with taste receptor constructs described herein. […]
The transfected cells were analyzed with each of the sweeteners/compounds individually using a wide range of concentrations. The ligand binding and subsequent activation of the taste receptor causes an influx of Ca^2+ ions into the cell, which can be measured as an increase in fluorescent signaling using a microplate reader as shown in Figure 2.
The dose-response curves are calculated by using mean fluorescence values of multiple wells receiving the same concentration of sweetener/compound, and subtracting fluorescence changes of corresponding cells transfected with empty vector (ΔF). Signals are normalized to background fluorescence (ΔF/F). […]

[2] = system: pig intestine; details: Daly et al.; cited from earlier work
[3] = molecular target: T1, pig sweet taste receptors; details: Daly et al.; cited from earlier work

Structure (SMILES)	In vitro EC50 (mg/ml) for pig sweet taste receptors [1]	glucose uptake in the pig intestine [2]	activation of pig sweet taste receptors in vitro [3]
C=C1C[C@@]23CC[C@H]4[C@@](C)(CCC[C@@]4(C)C(=O)O[C@@H]4O[C@H](CO)[C@@H](O)[C@H](O)[C@H]4O)[C@@H]2CC[C@]1(O[C@@H]1O[C@H](CO)[C@@H](O)[C@H](O[C@@H]2O[C@H](CO)[C@@H](O)[C@H](O)[C@H]2O)[C@H]1O[C@@H]1O[C@H](CO)[C@@H](O)[C@H](O)[C@H]1O)C3 [Rebaudioside A]	0.76 mg/mL	–	–
COC(=O)[C@H](Cc1ccccc1)NC(=O)[C@@H](N)CC(=O)O [aspartame] (H-Asp-Phe-OMe)	–	do not induce higher glucose uptake in the pig intestine	do not activate pig sweet taste receptors in vitro
COc1ccc(CCC(=O)c2c(O)cc(O[C@@H]3O[C@H](CO)[C@@H](O)[C@H](O)[C@H]3O[C@@H]3O[C@@H](C)[C@H](O)[C@@H](O)[C@H]3O)cc2O)cc1O [NHDC # 020D066, 1-(4-((2-O-[6-Deoxy-α-L-mannopyranosyl]-β-D-glucopyranosyl)oxy)-2,6-dihydroxyphenyl)-3-[3-hydroxy-4-methoxyphenyl]-1-poranone]	0.62 mg/mL	–	–
